# Data as given in patent US20060052430A1, “Antihistamines for increased tolerance to extreme heat” (priority 2004, published 2006).
# What was measured:
# [1] = test system: rat; settings: literature; cited from earlier work
# [2] = test system: chickens; settings: cimetidine in the diet, stress was not heat; cited from earlier work
# [3] = in vivo; cited from earlier work
# [4] = test system: conscious rats
# [5] = conscious rats, i.v. 10 mg/kg in 3% EtOH 30 minutes prior to heat exposure at 44° C. ± 1
smiles,measurement,setting,value
"CN/C(=N/CCSCc1nc[nH]c1C)NC#N [Cimetidine, cimetidine]","Effect in heat-induced brain injury (blood-brain barrier permeability, cerebral blood flow disturbances, edema, cell reactions)",[1],beneficial
same,Stress-induced modulations,[2],reduced
same,Half-life,[3],2 h
same,"Core body temperature after onset of heat stroke until heat shock, vs controls",[4]; FIG. 1,lower core body temperature
same,"Time a lower, non-pathological core temperature is maintained in extreme heat, vs controls","[4]; FIG. 1, cimetidine pretreated animals",2-4 times longer
same,"Time of MAP blood pressure crash, vs controls",[4]; FIG. 2,delayed
same,"Increase of interval between initiation of exposure to extreme heat and heat stroke crash to 40 mmHg, vs control","[4]; cimetidine pretreatment, P<0.05",2.6 fold
same,Max. HR (heart rate),[4]; [5],532 ± 28 BPM ± SEM
same,Max. MAP (mean arterial pressure),[4]; [5],173 ± 23 mmHg ± SEM
same,Max. TB (body temperature),[4]; [5],41.9 ± 0.9 °C ± SEM
same,"Heat Tolerance (time of heat exposure until heat shock, TB ≧ 41.3° C. and MAP <40 mmHg)","[4]; conscious rats, i.v. 10 mg/kg in 3% EtOH 30 minutes prior to heat exposure at 44° C. ± 1, p<0.05 vs control",315 ± 61 minutes ± SEM
same,"Heart rate in the interval from exposure to heat stroke, MAP crash, vs controls","[4]; rat, in vivo",did not differ
